From patent US20260258003A1, “SLACK-ACTIVATING COMPOUNDS AND THEIR MEDICAL USE” (Johann Wolfgang Goethe-Universität Frankfurt am Main, priority 2023, published 2026)

What was measured:
[1] = test system: heart rate and breath rate of mice; assay: Pulse oximetry on conscious, freely moving mice; type: in vivo; details: 10 mg/kg i.p., observation period of 30 min
Procedure: Finally, potential side effects of Compound 6 were assessed by measuring cardiovascular functions by pulse oximetry.

[2] = test system: DNFB-induced persistent itch behavior of mice; assay: DNFB model of persistent itch (allergic contact dermatitis); type: in vivo; details: i.p. after the second DNFB exposure, vs vehicle
Procedure: Furthermore, the effect of Compound 6 in chronic itch was examined in a model of allergic contact dermatitis^31. In brief, the fur on the dorsolateral aspect of the neck was shaved under brief isoflurane anesthesia. Three to four days thereafter, the shaved skin area was painted with 100 μL of 0.15% 2,4-dinitrofluorobenzene (DNFB) in acetone/olive oil (3:1). After 10-11 days, the skin was shaved again and the DNFB solution was painted 3-4 days thereafter (i.e., two painting sessions 14 days apart). Ninety minutes after the second painting, mice were habituated for 15 min in separate plexiglass cylinders (30 cm diameter).
Compounds or vehicle (10% 2-hydroxypropyl-β-cyclodextrine in 0.9% saline) were i.p. administered, and 15 min thereafter spontaneous scratching was recorded over 30 min by videotaping (FIG. 10A).

[3] = target: T1, serotonin transporter (SET) (Homo sapiens, UniProt P31645); assay: SafetyScreen44 binding; details: substantial = higher than 50%
T1 construct: Eurofins SafetyScreen44

[4] = target: T2, norepinephrine transporter (NET) (Homo sapiens, UniProt P23975); assay: SafetyScreen44 binding; details: substantial = higher than 50%
T2 construct: Eurofins SafetyScreen44

[5] = target: T3, short form of dopamine receptor D2 (D2S) (Homo sapiens, UniProt P14416); assay: SafetyScreen44 binding; details: 10 μM; substantial = higher than 50%
T3 construct: Eurofins SafetyScreen44
Procedure: (§1) Compound enzyme inhibition effect was calculated as a % inhibition of control enzyme activity. […] Measurements were performed in duplicate.

[6] = target: T4, histamine H1 receptor (H1) (Homo sapiens, UniProt P35367); assay: SafetyScreen44 binding; details: 10 μM; substantial = higher than 50%
T4 construct: Eurofins SafetyScreen44
Procedure: as §1

[7] = target: T5, dopamine receptor D1 (D1) (Homo sapiens, UniProt P21728); assay: SafetyScreen44 binding; details: 10 μM; substantial = higher than 50%
T5 construct: Eurofins SafetyScreen44
Procedure: as §1

[8] = target: T6, alpha-1A adrenergic receptor (α1A) (Homo sapiens, UniProt P35348); assay: SafetyScreen44 binding; details: substantial = higher than 50%
T6 construct: Eurofins SafetyScreen44
Procedure: as §1

human Slack = target: T7, human Slack (Homo sapiens, UniProt Q5JUK3); assay: Whole-cell patch-clamp recordings in HEK-Slack cells; type: cell-based
T7 construct: host or cells: HEK293
T7 sequence (Q5JUK3 1-1230): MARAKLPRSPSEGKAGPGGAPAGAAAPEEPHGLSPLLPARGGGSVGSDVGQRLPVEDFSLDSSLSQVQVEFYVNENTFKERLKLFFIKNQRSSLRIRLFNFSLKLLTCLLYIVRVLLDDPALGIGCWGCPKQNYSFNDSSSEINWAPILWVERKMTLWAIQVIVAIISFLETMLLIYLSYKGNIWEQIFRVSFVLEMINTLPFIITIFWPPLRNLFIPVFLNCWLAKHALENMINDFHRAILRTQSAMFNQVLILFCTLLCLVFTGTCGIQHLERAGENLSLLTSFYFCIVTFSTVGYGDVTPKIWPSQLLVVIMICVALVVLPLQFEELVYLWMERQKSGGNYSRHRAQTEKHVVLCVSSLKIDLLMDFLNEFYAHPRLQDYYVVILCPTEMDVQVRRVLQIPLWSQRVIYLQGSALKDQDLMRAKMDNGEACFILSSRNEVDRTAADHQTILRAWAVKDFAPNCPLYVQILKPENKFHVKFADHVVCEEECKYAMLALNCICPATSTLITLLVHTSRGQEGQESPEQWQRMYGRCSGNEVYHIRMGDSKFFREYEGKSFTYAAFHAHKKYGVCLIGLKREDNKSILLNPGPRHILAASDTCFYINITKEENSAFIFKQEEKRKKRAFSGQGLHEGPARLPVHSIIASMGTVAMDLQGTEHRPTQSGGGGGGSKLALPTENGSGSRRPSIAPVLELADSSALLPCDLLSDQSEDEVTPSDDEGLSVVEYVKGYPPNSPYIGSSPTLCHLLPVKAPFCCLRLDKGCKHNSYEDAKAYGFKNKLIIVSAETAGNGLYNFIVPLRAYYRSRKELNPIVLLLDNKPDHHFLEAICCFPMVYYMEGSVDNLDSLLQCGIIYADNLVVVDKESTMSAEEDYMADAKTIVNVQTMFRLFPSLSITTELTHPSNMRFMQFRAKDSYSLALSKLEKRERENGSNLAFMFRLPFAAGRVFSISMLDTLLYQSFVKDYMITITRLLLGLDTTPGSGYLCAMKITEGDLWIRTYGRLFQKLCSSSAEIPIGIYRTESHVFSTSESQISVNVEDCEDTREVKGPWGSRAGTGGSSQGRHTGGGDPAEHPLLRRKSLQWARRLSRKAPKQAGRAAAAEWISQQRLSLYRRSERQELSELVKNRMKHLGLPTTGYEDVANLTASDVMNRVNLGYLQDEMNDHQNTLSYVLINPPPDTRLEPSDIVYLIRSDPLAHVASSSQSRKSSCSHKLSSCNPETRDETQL
Procedure: Generally, in these experiments, HEK-Slack cells were plated onto poly-D-lysine-coated (100 μg/mL, Sigma Aldrich) coverslips 1 day before experiments and cultured in DMEM containing 10% FBS and 1% penicillin/streptomycin in 5% CO2 at 37° C. Whole-cell voltage clamp recordings were acquired using an EPC 9 amplifier combined with Patchmaster software (HEKA Electronics, Lambrecht/Pfalz, Germany). Currents were sampled at 20 kHz and filtered at 5 KHz. Data analysis was performed using the Fitmaster software (HEKA Electronics). Membrane potential was held at −70 mV and outward K^+ current (IK) was evoked by depolarizing steps (500 ms duration) ranging from −120 to +120 mV in increments of 20 mV. The pipette solution contained 140 mM KCl, 2 mM MgCl2, 5 mM EGTA, 10 mM HEPES, and was adjusted to pH 7.4 with KOH. The extracellular solution contained 140 mM NaCl, 5 mM KCl, 2 mM CaCl2), 2 mM MgCl2, 10 mM HEPES, and was adjusted to pH 7.4 with NaOH.
At a holding potential of −70 mV a series of 500 ms-long test pulses ranging from −120 to +120 mV in intervals of 20 mV were applied.
Fold increase values in patch-clamp experiments were determined by calculating […].

[9] = target: T8, cannabinoid receptor 1 (CB1) (Homo sapiens, UniProt P21554); assay: SafetyScreen44 binding; details: 10 μM; substantial = higher than 50%
T8 construct: Eurofins SafetyScreen44
Procedure: as §1

T4 sequence (P35367 whole entry): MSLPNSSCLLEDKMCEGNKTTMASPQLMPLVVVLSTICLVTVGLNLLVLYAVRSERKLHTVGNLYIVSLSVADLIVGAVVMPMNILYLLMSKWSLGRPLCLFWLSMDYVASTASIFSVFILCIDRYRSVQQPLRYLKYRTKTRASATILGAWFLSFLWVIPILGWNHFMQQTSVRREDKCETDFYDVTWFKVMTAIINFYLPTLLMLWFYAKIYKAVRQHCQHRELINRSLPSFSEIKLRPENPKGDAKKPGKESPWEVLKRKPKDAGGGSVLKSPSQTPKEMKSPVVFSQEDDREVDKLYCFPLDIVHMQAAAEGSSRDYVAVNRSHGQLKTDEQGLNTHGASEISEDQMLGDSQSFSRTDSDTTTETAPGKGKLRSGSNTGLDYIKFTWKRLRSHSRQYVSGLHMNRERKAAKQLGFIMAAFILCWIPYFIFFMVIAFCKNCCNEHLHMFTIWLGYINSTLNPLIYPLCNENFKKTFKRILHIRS
T1 sequence (P31645 whole entry): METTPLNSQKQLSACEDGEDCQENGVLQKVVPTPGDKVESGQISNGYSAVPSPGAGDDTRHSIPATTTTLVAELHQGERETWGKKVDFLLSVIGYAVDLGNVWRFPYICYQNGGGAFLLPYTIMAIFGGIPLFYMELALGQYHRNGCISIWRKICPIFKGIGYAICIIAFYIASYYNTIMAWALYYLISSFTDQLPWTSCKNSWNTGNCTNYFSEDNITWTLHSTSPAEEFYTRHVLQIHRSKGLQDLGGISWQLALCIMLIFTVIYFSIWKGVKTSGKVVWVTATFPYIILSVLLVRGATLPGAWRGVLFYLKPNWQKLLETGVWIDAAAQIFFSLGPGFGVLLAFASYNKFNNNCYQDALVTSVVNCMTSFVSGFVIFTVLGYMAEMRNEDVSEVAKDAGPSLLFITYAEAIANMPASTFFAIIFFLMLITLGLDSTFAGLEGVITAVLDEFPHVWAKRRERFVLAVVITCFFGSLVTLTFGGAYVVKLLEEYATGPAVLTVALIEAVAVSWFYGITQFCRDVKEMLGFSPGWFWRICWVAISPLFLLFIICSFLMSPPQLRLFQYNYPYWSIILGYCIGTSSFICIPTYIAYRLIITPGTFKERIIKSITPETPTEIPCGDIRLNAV
T5 sequence (P21728 whole entry): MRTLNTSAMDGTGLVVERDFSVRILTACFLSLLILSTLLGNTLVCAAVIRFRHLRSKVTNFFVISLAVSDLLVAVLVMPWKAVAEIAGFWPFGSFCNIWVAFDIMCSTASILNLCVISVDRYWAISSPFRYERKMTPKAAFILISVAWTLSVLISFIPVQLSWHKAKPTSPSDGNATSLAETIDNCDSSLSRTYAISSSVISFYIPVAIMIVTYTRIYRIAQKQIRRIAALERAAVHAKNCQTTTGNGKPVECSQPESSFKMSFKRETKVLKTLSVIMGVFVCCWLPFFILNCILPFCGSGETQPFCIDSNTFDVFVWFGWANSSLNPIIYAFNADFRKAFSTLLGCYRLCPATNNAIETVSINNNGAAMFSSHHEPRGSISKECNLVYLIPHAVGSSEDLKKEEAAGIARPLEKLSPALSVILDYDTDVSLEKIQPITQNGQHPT
T6 sequence (P35348 whole entry): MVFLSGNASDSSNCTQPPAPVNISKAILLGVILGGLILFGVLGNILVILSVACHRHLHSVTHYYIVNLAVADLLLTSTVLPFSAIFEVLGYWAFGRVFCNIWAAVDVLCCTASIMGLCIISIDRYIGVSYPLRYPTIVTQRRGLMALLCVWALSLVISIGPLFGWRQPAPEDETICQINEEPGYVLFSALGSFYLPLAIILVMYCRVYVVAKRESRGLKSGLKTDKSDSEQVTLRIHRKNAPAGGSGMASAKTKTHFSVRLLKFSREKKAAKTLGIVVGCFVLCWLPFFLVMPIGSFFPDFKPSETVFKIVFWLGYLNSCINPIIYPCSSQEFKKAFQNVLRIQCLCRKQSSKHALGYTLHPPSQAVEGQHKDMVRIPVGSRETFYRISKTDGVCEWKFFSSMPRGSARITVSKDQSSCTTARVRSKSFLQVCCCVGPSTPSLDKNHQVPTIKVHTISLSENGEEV
T2 sequence (P23975 whole entry): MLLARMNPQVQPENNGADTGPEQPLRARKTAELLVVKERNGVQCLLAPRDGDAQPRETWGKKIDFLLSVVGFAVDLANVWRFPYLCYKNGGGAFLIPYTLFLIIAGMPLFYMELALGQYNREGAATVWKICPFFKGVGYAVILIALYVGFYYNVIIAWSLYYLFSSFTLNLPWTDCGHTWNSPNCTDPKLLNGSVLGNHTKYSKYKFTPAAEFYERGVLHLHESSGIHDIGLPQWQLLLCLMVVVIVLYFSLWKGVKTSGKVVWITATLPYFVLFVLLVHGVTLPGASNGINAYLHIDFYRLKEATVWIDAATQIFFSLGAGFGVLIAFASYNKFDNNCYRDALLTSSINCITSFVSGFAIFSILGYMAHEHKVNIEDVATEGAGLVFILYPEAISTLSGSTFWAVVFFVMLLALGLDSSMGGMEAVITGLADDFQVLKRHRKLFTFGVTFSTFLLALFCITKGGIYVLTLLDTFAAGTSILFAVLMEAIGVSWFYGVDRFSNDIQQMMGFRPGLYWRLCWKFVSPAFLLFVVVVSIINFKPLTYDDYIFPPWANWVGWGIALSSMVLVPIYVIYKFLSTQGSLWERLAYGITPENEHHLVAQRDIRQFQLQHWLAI
T3 sequence (P14416 1-414 isoform P14416-2): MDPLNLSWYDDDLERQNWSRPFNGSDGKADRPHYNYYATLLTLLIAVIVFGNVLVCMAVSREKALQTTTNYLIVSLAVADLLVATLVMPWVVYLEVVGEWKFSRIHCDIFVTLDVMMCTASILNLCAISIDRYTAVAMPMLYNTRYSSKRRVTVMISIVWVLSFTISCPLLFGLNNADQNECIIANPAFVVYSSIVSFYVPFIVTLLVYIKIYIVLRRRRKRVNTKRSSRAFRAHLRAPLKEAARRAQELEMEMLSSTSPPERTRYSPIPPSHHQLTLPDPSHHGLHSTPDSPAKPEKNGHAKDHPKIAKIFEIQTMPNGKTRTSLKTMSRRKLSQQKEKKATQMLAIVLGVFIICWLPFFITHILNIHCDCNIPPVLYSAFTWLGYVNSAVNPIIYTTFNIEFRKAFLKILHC
T8 sequence (P21554 whole entry): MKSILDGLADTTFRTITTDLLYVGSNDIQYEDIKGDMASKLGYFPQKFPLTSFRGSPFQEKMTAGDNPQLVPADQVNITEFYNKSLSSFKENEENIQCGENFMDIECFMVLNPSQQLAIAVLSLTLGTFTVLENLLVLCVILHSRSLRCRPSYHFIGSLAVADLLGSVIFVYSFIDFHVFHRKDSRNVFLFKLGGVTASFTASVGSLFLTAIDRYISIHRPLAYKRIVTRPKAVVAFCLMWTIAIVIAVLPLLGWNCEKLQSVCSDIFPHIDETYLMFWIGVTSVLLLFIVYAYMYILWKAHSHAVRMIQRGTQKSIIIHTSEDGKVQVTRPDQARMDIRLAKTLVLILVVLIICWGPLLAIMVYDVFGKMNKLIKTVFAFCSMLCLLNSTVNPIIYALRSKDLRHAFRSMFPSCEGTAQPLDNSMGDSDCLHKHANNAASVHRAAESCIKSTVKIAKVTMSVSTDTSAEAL

## O=C(O)COCCN1CCN(C2=Nc3ccccc3Oc3ccc(Cl)cc32)CC1 [Compound 6, 2-(2-(4-(2-Chlorodibenzo[b,f][1,4]oxazepin-11-yl)piperazin-1-yl)ethoxy) acetic acid]
[1]
  breath rate: did neither affect
  heart rate: did neither affect
[2]
  number of head shakes, DNFB model: significantly inhibited
  number of scratching bouts, DNFB model: significantly inhibited
[3]; 10 μM
  binding inhibition, SET: substantial binding
[4]; 10 μM
  binding inhibition, NET: substantial binding
[5]
  binding inhibition, D2S: substantial binding
[6]
  binding inhibition, H1: substantial binding
[7]
  binding inhibition, D1: substantial binding
[8]; 10 μM
  binding inhibition, α1A: substantial binding

## O=c1nc(CN2CCN(C3=Nc4ccccc4Oc4ccc(Cl)cc43)CC2)[nH][nH]1 [Compound 10, 5-((4-(2-Chlorodibenzo[b,f][1,4]oxazepin-11-yl)piperazin-1-yl)methyl)-1,2-dihydro-3H-1,2,4-triazol-3-one]
Human Slack; 25 μM
  fold increase compared to baseline: 7.74±1.525 fold
Human Slack; 50 μM
  fold increase compared to baseline: 12.54±1.395 fold
[9]
  binding inhibition, CB1: substantial binding inhibition
[6]
  binding inhibition, H1: substantial binding inhibition
[7]
  binding inhibition, D1: substantial binding inhibition

## CN1CCCN(C2=Nc3ccccc3Oc3ccc(C(F)(F)F)cc32)CC1 [Compound 3, 11-(4-Methyl-1,4-diazepan-1-yl)-2-(trifluoromethyl)dibenzo[b,f][1,4]oxazepine]
Human Slack; 50 μM
  IK amplitude in comparison to vehicle: all except Compound 3

## CN1CCN(C2=Nc3ccccc3Oc3ccc(Cl)cc32)CC1 [Loxapine, 2-chloro-11-(4-methylpiperazin-1-yl)dibenzo[b,f][1,4]oxazepine, reference compound]
[3]
  inhibition at 10 µM: > 50%
[4]
  inhibition at 10 µM: > 50%
[8]
  inhibition at 10 µM: > 50%
